Reference: patent publication US20140051735A1, “USE OF N-PHENYLETHYLPYRAZOLE CARBOXAMIDE DERIVATIVES OR SALTS THEREOF FOR CONTROLLING POWDERY MILDEW PRIMARY INFECTIONS” (BAYER INTELLECTUAL PROPERTY GMBH, priority 2010, published 2014)

Tests used:
[1] = tested on: powdery mildew species; details: on different crops; cited from earlier work
[2] = tested on: powdery mildew primary infections; experiment: controlling powdery mildew primary infections in perennial crops after application prior to the end of the previous vegetative cycle; assay type: in vivo; details: in the year of the application and also in the year after

| SMILES | efficacy against powdery mildew species [1] | infection of new growing shoots and leaves [2] | number of early infected shoots [2] |
| --- | --- | --- | --- |
| O=C(NCCc1ncc(C(F)(F)F)cc1Cl)c1ccccc1C(F)(F)F [fluopyram] | high level of efficacy | – | – |
| COC(c1ccc(Cl)cc1Cl)C(C)NC(=O)c1cn(C)nc1C(F)F (stereo not drawn) [3-difluoromethyl-1-methyl-1H-pyrazole-4-carboxylic acid [2-(2,4-dichlorophenyl)-2-methoxy-1-methyl-ethyl]-amide] | – | delayed | significantly reduced |
